Experiment [1] relates to Immature Sprague-Dawley rats (female, 18 days old). The experiment can be described thus: Rat Uterotrophic/Antiuterotrophic Bioassay (uterine wet weight). It is filed as in vivo. Particulars: for uterine wet weight, 1 uG 17_-estradiol: 1 uG daily ip; for uterine wet weight, 10uG: 10 uG compound daily ip; for uterine wet weight, 100uG: 100 uG compound daily ip.
For the next experiment, the system named is Ishikawa cells. The experiment can be described thus: Ishikawa Cell Alkaline Phosphatase Assay. It is filed as cell-based, human. Particulars: for % Activation: compound alone, percent of response related to 1 nM 17_estradiol; for EC50: Homo sapiens, Ishikawa, cells treated for 48 h.
The target of another experiment is T1, TACE (Homo sapiens, UniProt P78536).
T1 construct: purchased Immunex
T1 sequence (P78536 215-824): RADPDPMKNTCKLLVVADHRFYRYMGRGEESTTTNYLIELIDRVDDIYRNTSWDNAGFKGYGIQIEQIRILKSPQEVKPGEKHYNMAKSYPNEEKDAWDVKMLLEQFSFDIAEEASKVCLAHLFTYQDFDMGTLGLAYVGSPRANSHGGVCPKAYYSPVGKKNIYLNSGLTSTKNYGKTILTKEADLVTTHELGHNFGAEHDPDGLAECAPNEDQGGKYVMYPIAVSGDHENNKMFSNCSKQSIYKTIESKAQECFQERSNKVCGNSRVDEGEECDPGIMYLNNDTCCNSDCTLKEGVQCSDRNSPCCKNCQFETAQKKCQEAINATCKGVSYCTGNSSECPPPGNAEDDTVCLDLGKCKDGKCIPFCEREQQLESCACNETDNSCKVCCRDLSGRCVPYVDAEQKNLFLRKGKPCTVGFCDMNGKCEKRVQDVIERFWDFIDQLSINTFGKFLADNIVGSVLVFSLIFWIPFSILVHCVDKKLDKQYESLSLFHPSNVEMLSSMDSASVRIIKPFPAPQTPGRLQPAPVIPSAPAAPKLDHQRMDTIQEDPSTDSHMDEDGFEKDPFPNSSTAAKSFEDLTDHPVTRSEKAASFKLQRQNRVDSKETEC
The experiment in a line: Procedure for Measuring TACE Inhibition (fluorescent peptidyl substrate). In kind it is biochemical. Particulars: read-out: TACE % inhibition at 1 micromolar; 1 micromolar compound.

Each structure is given as a SMILES string. Structures can show the parent of a compound that is named as a salt. Where two headings read alike, the source gives them in different places.

Experimental for Ishikawa cells: Ishikawa cells were maintained in DMEM/F12 (50%:50%) containing phenol red + 10% fetal bovine serum and the medium was supplemented with 2 mM Glutamax, 1% Pen/Strap and 1 mM sodium pyruvate. Five days prior to the beginning of each experiment (treatment of cells) the medium was changed to phenol red-free DMEM/F12 + 10% dextran coated charcoal stripped serum. […] Sample population for at each dose was n=8.
50_L of lysis buffer (0.1 M Tris-HCl, pH 9.8, 0.2% Triton X-100) is added to each well. […] Plates are thawed at 37°C followed by the addition of 150_L of 0.1 M Tris-HCl, pH 9.8, containing 4 mM para-nitrophenylphosphate (pNPP) to each well (final concentration, 3 mM pNPP). Absorbance and slope calculations were made using the KineticCalc Application program (Bio-Tek Instruments, Inc., Winooski, VT). Results are expressed as the mean +/- S.D. of the rate of enzyme reaction (slope) averaged over the linear portion of the kinetic reaction curve (optical density readings every 5 minutes for 30 minutes absorbance reading).
Experimental for TACE: Using 96-well black microtiter plates, each well receives a solution composed of 10 µL TACE (Immunex, final concentration 1µg/mL), 70µL Tris buffer, pH 7.4 containing 10% glycerol (final concentration 10 mM), and 10 µL of test compound solution in DMSO (final concentration 1µM, DMSO concentration <1%) and incubated for 10 minutes at room temperature. […] The reaction is read (excitation 340 nm, emission 420 nm) for 10 min. and the increase in fluorescence over time is plotted as a linear line. The slope of the line is calculated and represents the reaction rate. The linearity of the reaction rate is confirmed (r^2 >0.85). The mean (x±sem) of the control rate is calculated and compared for statistical significance (p<0.05) with drug-treated rates using Dunnett's multiple comparison test. […]
The reaction is read (excitation 340 nm, emission 420 nm) for 10 min. and the increase in fluorescence over time is plotted as a linear line. The slope of the line is calculated and represents the reaction rate.
The linearity of the reaction rate is confirmed (r^2 >0.85). The mean (x±sem) of the control rate is calculated and compared for statistical significance (p<0.05) with drug-treated rates using Dunnett's multiple comparison test.

Turning to `C[C@]12CC[C@@H]3c4ccc(O)cc4CC[C@H]3[C@@H]1CC[C@@H]2O` [17_-estradiol], the “uterine wet weight, 1 uG 17_-estradiol” value was 1 uG 17_-estradiol = 63.2 mg in experiment [1] (control = 30.7 mg) and 1 uG 17_-estradiol = 98.2 mg in experiment [1] (control = 42.7 mg).

Take `Cc1c(-c2ccc(O)cc2)n(Cc2ccc(OCCN3CCCCC3)cc2)c2ccc(O)cc12` [Example 15, 2-(4-Hydroxy-phenyl)-3-methyl-1-[4-(2-piperidin-1-yl-ethoxy)-benzyl]-1H-indol-5-ol]: the “% Activation” value with Ishikawa cells (48 h) is given as 1% activity (1% with 1 nM 17_-estradiol). For the same compound, in experiment [1] (control = 30.7 mg), the “uterine wet weight, 10uG” value was determined as 39.9 mg and the “uterine wet weight, 100uG” value turned out to be 27.4 mg. For the same compound, the “uterine wet weight, 100uG + 1uG 17 -estradiol” value in experiment [1] (100 uG compound + 1 uG 17_ estradiol daily ip (antiestrogenicity), control = 30.7 mg) came out at 24.3 mg.

As to `COc1ccc(S(=O)(=O)C(C)(Cc2ccc(OCCN3CCCCC3)cc2)C(=O)NO)cc1` (centres unmarked) [Example 26], on TACE, the inhibition at 1 µM came to 41%.

In the case of `O=C(c1ccc(OCCN2CCCCC2)cc1)c1c(-c2ccc(O)cc2)sc2cc(O)ccc12` [Raloxifene, [2-(4-hydroxyphenyl)-6-hydroxybenzo[b]thien-3-yl][4-(1-piperidinyl0ethoxy]phenyl-methanone hydrochloride], the “% Activation” value in the experiment on Ishikawa cells (48 h) is on record as 5% activity (5% with 1 nM 17_-estradiol). In experiment [1] (control = 42.7 mg), the “uterine wet weight, 10uG” value is given as 47.5 mg and the “uterine wet weight, 100uG” value is on record as 43.2 mg.

In the case of `CC/C(=C(\c1ccccc1)c1ccc(OCCN(C)C)cc1)c1ccccc1` [Tamoxifen], in experiment [1] (control = 42.7 mg), the “uterine wet weight, 10uG” value came to 69.6 mg and the “uterine wet weight, 100uG” value was determined as 71.4 mg.

Regarding `C[C@]12CC[C@@H]3c4ccc(O)cc4CC[C@H]3[C@@H]1C[C@@H](O)[C@@H]2O` [estriol], the EC50 in the experiment with Ishikawa cells (read-out: ED50 values (95% C.I.), estrogenic activity by the alkaline phosphatase method, reference standards) came out at 0.13 nM.

Regarding `C[C@]12CC[C@@H]3c4ccc(O)cc4CC[C@H]3[C@@H]1CCC2=O` [estrone], the EC50 in the experiment on Ishikawa cells (48 h, read-out: ED50 values (95% C.I.), estrogenic activity by the alkaline phosphatase method, reference standards) is 0.36 nM.

One may read the inhibition as how much of the control response was suppressed.
